Data as given in US11458138B2 (Novartis AG, priority 2017, dated 2022).

Assays:
[1] = target: LATS1 (Homo sapiens (Human), UniProt O95835); assay: LATS1 biochemical assay (Table 1A, Compound Examples 1-290; method in the earlier part)
[2] = tested on: YAP nuclear translocation in HaCaT cells; assay: YAP Translocation Assay (HaCaT Cells); assay type: cell-based, human; details: Homo sapiens, 24 hours
Procedure, shortened: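 HaCaT cells (20,000/well) in DMEM + 10% FBS were plated overnight at 37° C, then exposed to compound for 24 h at 37° C. Cells were fixed with PFA, permeabilized with 0.1% Triton/1.5% BSA and imaged by high-content imaging.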

[3] = tested on: Phospho-YAP (Ser127) in JHH-5 cells; assay: pYAP HTRF Assay (JHH-5 cells); assay type: cell-based; details: 2 hours
Procedure: Briefly, JHH-5 cells are suspended at 0.48×10^6 cells/ml in William's E medium without phenol-red (Thermo Fisher Scientific Gibco catalog number A1217601) supplemented with 10% (v/v) heat-inactivated fetal bovine serum (Thermo Fisher Scientific Gibco catalog number 16140071) and penicillin-streptomycin at 100 U/ml each (Thermo Fisher Scientific Gibco catalog number 15140122). Cells are dispensed into 384well clear bottom culture plates (50 ul/well, at 24000 cells per well, Greiner catalog number 781091), and incubated for 24 hours in a cell culture incubator at 37° C. Test compounds are transferred into culture plates containing JHH-5 cells using an Echo550 (Labcyte) acoustic dispenser (50 nl/well), followed by incubation for 2 hours at 37° C. Lysis buffer (part of CisBio kit catalog number 64YAPPEI) is added to the assay plates as a four-fold concentrate (corresponding to 16 ul/well) and incubated for 30 minutes at room temperature with agitation. Lysate is transferred from culture plates into white low-volume 384well assay plates (12 ul/well, Greiner catalog number 784075), followed by the addition of 3 ul/well of detection antibodies (part of CisBio kit catalog number 64YAPPEI: 1:40 dilution of each pYAP d2 antibody and pYAP cryptate antibody stocks). The plates are sealed and incubated overnight (18 hours) at room temperature protected from light. Plates are read on an EnVision plate reader (Perkin Elmer) at emission wavelengths of 665 nm and 620 nm. The HTRF signal ratio x per well is calculated as [x=Signal(665 nm)/Signal(620 nm)×10000] as specified in the manufacturer's protocol.

[4] = tested on: Phospho-YAP (SER127) in HaCaT cells; assay: pYAP HTRF Assay (HaCaT Cells); assay type: cell-based, human; details: Homo sapiens, 2 hours
Procedure, shortened: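 Phospho-YAP (Ser127) was measured by HTRF (665 nm/620 nm ratio) in HaCaT cells. Cells were grown 48 hours at 37° C at 5500 cells/well, exposed to compound for 2 hours, and incubated with detection reagents for 20 hrs at room temperature.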

Sequence of LATS1 (O95835 whole entry, looked up): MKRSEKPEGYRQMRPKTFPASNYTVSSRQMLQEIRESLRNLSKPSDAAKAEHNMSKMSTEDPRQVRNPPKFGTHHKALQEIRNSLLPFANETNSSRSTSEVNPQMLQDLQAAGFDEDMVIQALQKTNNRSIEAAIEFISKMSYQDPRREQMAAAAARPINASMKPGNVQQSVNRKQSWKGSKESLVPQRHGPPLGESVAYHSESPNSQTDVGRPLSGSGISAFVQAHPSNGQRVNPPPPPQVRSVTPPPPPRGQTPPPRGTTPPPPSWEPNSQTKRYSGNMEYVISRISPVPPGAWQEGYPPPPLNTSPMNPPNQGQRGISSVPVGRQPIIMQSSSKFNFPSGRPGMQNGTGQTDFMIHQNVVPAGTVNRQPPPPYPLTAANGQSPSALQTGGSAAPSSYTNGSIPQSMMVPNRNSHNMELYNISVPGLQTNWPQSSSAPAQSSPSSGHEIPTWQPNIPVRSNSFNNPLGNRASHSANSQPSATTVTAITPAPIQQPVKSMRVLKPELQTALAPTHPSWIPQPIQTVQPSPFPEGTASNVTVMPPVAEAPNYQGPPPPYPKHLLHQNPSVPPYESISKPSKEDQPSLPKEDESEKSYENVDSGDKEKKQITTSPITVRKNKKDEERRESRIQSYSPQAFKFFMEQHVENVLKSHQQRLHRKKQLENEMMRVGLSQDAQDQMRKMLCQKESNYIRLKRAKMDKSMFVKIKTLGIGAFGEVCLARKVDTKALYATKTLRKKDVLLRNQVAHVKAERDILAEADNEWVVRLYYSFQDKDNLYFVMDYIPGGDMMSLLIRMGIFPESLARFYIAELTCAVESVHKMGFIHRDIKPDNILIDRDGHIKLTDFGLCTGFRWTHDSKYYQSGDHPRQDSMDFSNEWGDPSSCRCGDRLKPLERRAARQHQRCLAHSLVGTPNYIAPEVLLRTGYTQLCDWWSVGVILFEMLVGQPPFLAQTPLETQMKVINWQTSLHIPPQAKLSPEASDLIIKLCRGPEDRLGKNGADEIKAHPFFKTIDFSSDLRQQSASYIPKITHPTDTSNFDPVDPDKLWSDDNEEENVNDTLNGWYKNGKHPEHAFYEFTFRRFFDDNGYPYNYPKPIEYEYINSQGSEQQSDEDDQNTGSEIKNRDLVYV
Sequence of LATS1 (Q7L9L4 whole entry partner, looked up): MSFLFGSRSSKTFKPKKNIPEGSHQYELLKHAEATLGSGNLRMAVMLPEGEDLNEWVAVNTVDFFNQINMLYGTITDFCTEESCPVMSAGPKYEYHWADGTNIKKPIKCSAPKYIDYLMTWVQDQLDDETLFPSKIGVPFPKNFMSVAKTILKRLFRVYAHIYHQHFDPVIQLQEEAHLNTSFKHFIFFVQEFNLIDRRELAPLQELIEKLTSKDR

Row | IC50 [1] [µM] | IC50 [3] [µM] | SMILES | EC50 [2] [µM] | IC50 [4] [µM]
1 | 0.039 | > 10 | CC(C)(CNCC(=O)O)Nc1nc(-c2ccncc2)nc2cnccc12 [Example 30, 2-[(2-methyl-2-{[2-(pyridin-4-yl)pyrido[3,4-d]pyrimidin-4-yl]amino}propyl)amino]acetic acid] | > 20 | –
2 | – | 1.5 | CN(C)CCC(C)(C)Nc1nc(-c2ccncc2)nc2cnccc12 [Example 109, dimethyl(3-methyl-3-{[2-(pyridin-4-yl)pyrido[3,4-d]pyrimidin-4-yl]amino}butyl)amine] | 4.71 | 0.977
3 | 0.171 | – | CC1(Nc2nc(-c3cncs3)nc3cnccc23)CC1 [Example 149, N-(1-methylcyclopropyl)-2-(1,3-thiazol-5-yl)pyrido[3,4-d]pyrimidin-4-amine] | > 20 | > 10
4 | > 5 | – | Cc1noc(C)c1-c1nc(NC2(C)CC2)c2ccncc2n1 [Example 153, 2-(dimethyl-1,2-oxazol-4-yl)-N-(1-methylcyclopropyl)pyrido[3,4-d]pyrimidin-4-amine] | > 20 | > 10
5 | 0.006 | – | CCCNc1nc(-n2ccc3ncccc32)nc2cnccc12 [Example 156, N-propyl-2-{1H-pyrrolo[3,2-b]pyridin-1-yl}pyrido[3,4-d]pyrimidin-4-amine] | 90.1 | > 100
6 | 0.008 | – | CC1(Nc2nc(-c3cn[nH]c3)nc3cnccc23)CCC1 [Example 158, N-(1-methylcyclobutyl)-2-(1H-pyrazol-4-yl)pyrido[3,4-d]pyrimidin-4-amine] | 6.29 | 11.2
7 | 0.016 | – | CC1(Nc2nc(-c3ccncn3)nc3cnccc23)CC1 [Example 159, N-(1-methylcyclopropyl)-2-(pyrimidin-4-yl)pyrido[3,4-d]pyrimidin-4-amine] | > 20 | > 10
8 | 0.024 | – | Cc1n[nH]c(C)c1-c1nc(NC(C)(C)CC(C)(C)O)c2ccncc2n1 [Example 160, 4-{[2-(3,5-dimethyl-1H-pyrazol-4-yl)pyrido[3,4-d]pyrimidin-4-yl]amino}-2,4-dimethylpentan-2-ol] | > 20 | 6.8
9 | 0.025 | – | CCCNc1nc(-c2c[nH]c3ncncc23)nc2cnccc12 [Example 161, 4 N-propyl-2-{7H-pyrrolo[2,3-d]pyrimidin-5-yl}pyrido[3,4-d]pyrimidin-4-amine] | > 20 | > 100
10 | 0.028 | – | Cc1[nH]ncc1-c1nc(N[C@H](C)c2ccccc2)c2ccncc2n1 [Example 168, 2-(5-methyl-1H-pyrazol-4-yl)-N-[(1R)-1-phenylethyl]pyrido[3,4-d]pyrimidin-4-amine] | 11.6 | 26.5
11 | 1.28 | – | C[C@@H](Nc1nc(-c2ccnn2C)nc2cnccc12)c1ccccc1 [Example 170, 2-(1-methyl-1H-pyrazol-5-yl)-N-[(1R)-1-phenylethyl]pyrido[3,4-d]pyrimidin-4-amine] | > 20 | > 10
12 | 0.017 | – | Cn1nccc1-c1nc(NC2(C)CC2)c2ccncc2n1 [Example 172, 2-(1-methyl-1H-pyrazol-5-yl)-N-(1-methylcyclopropyl)pyrido[3,4-d]pyrimidin-4-amine] | > 20 | > 10
13 | 0.197 | – | CC1(Nc2nc(-c3ccnnc3)nc3cnccc23)CC1 [Example 174, N-(1-methylcyclopropyl)-2-(pyridazin-4-yl)pyrido[3,4-d]pyrimidin-4-amine] | > 20 | > 10
14 | 0.324 | – | CC1(Nc2nc(-c3cnco3)nc3cnccc23)CC1 [Example 175, N-(1-methylcyclopropyl)-2-(1,3-oxazol-5-yl)pyrido[3,4-d]pyrimidin-4-amine] | > 20 | > 10
15 | 0.002 | – | CC1(Nc2nc(-n3ccc4ncccc43)nc3cnccc23)CC1 [Example 179, N-(1-methylcyclopropyl)-2-{1H-pyrrolo[3,2-b]pyridin-1-yl}pyrido[3,4-d]pyrimidin-4-amine] | > 20 | > 10
16 | 0.322 | – | CC1(Nc2nc(-c3c[nH]nn3)nc3cnccc23)CC1 [Example 180, N-(1-methylcyclopropyl)-2-(1H-1,2,3-triazol-4-yl)pyrido[3,4-d]pyrimidin-4-amine] | > 20 | > 10

Row | IC50 [1] [µM] | IC50 [3] [µM] | SMILES | EC50 [2] [µM] | IC50 [4] [µM]
17 | 0.016 | – | Cn1nccc1-c1nc(NC2(CO)CCC2)c2ccncc2n1 [Example 187, (1-{[2-(1-methyl-1H-pyrazol-5-yl)pyrido[3,4-d]pyrimidin-4-yl]amino}cyclobutyl)methanol] | > 20 | > 100
18 | 0.017 | – | FC(F)(F)C1(Nc2nc(-c3cn[nH]c3)nc3cnccc23)CC1 [Example 188, 2-(1H-pyrazol-4-yl)-N-[1-(trifluoromethyl)cyclopropyl]pyrido[3,4-d]pyrimidin-4-amine] | 12 | > 100
19 | 0.201 | – | OCC1(Nc2nc(-c3cn[nH]c3)nc3cnccc23)CC1 [Example 192, (1-{[2-(1H-pyrazol-4-yl)pyrido[3,4-d]pyrimidin-4-yl]amino}cyclopropyl)methanol] | > 20 | > 10
20 | 0.005 | – | CC1(Nc2nc(-c3cn[nH]c3)nc3cnccc23)CC1 [Example 194, N-(1-methylcyclopropyl)-2-(1H-pyrazol-4-yl)pyrido[3,4-d]pyrimidin-4-amine] | 4.24 | 11.3
21 | > 2.5 | – | Cn1cc(-c2nc(NC3(C)CC3)c3ccncc3n2)cn1 [Example 196, 2-(1-methyl-1H-pyrazol-4-yl)-N-(1-methylcyclopropyl)pyrido[3,4-d]pyrimidin-4-amine] | > 20 | > 10
22 | 0.001 | 3.2 | Cc1nccc2c(NC3(C)CC3)nc(-c3ccncc3)nc12 [Example 199, 8-methyl-N-(1-methylcyclopropyl)-2-(pyridin-4-yl)pyrido[3,4-d]pyrimidin-4-amine] | 9.1 | –
23 | 0.002 | – | CC1(Nc2nc(-c3ccncc3)nc3cncc(Cl)c23)CC1 [Example 252, 5-chloro-N-(1-methylcyclopropyl)-2-(pyridin-4-yl)pyrido[3,4-d]pyrimidin-4-amine] | > 10 | 6.98
24 | 0.085 | – | CC(C)(C)Nc1nc(-c2ccncc2)nc2cncc(NCCOCCO)c12 [Example 253] | > 20 | 16.7
25 | 0.022 | > 10 | CC[C@@H](C)Nc1cc(-c2ccncc2)nc2cnccc12 [Example 257, N-[(2R)-butan-2-yl]-2-(pyridin-4-yl)-1,7-naphthyridin-4-amine] | > 20 | –
26 | 0.023 | > 10 | COCC(C)(C)Nc1cc(-c2ccncc2)nc2cnccc12 [Example 258, N-(1-methoxy-2-methylpropan-2-yl)-2-(pyridin-4-yl)-1,7-naphthyridin-4-amine] | 9.92 | –
27 | 0.018 | > 10 | CCCNc1cc(-c2ccncc2)nc2cnccc12 [Example 268, N-propyl-2-(pyridin-4-yl)-1,7-naphthyridin-4-amine] | > 20 | –
28 | 0.013 | > 10 | CC(C)(C)Nc1cc(-c2ccnc(N)c2)nc2cnccc12 [Example 274, 2-(2-aminopyridin-4-yl)-N-tert-butyl-1,7-naphthyridin-4-amine] | 17.3 | –
29 | 0.011 | > 10 | CCN(CC)c1cc(-c2ccncc2F)nc2cnccc12 [Example 275, N,N-diethyl-2-(3-fluoropyridin-4-yl)-1,7-naphthyridin-4-amine] | 15.1 | –
30 | 0.017 | > 10 | CN(C)CCC(C)(C)Nc1cc(-c2ccncc2F)nc2cnccc12 [Example 276, (3-{[2-(3-fluoropyridin-4-yl)-1,7-naphthyridin-4-yl]amino}-3-methylbutyl)dimethylamine] | > 20 | –
31 | 0.01 | – | CC(C)(CO)Nc1cc(-c2ccncc2F)nc2cnccc12 [Example 282, 2-{[2-(3-fluoropyridin-4-yl)-1,7-naphthyridin-4-yl]amino}-2-methylpropan-1-ol] | 11.3 | 8.27
32 | 0.03 | – | CC(C)(CN1CCOCC1)Nc1cc(-c2ccncc2F)nc2cnccc12 [Example 284, 2-(3-fluoropyridin-4-yl)-N-[2-methyl-1-(morpholin-4-yl)propan-2-yl]-1,7-naphthyridin-4-amine] | > 41.2 | 46.5
